Results reported in patent US20170042152A1, “SAFENED HERBICIDAL COMPOSITIONS COMPRISING PYRIDINE CARBOXYLIC ACIDS” (priority 2015, published 2017).

Key:
[1] = test system: bird's-eye speedwell (VERPE); test: Greenhouse postemergence trial, weed efficacy; format: in vivo, Veronica persica; settings: cloquintocet-mexyl 0 g ai/ha, 20-22 d
Method: (§1) Seeds of the desired test plant species were planted in Sun Gro MetroMix® 306 planting mixture, which typically has a pH of 6.0 to 6.8 and an organic matter content of about 30 percent, in plastic pots with a surface area of 103.2 square centimeters (cm^2). When required to ensure good germination and healthy plants, a fungicide treatment and/or other chemical or physical treatment was applied. The plants were grown for 7-36 days (d) in a greenhouse with an approximate 14-hour (h) photoperiod which was maintained at about 18° C. during the day and 17° C. during the night. Nutrients and water were added on a regular basis and supplemental lighting was provided with overhead metal halide 1000-Watt lamps as necessary. The plants were employed for testing when they reached the second or third true leaf stage.
(§2) Weighed amounts of technical material were dissolved in a volume of 97:3 volume per volume (v/v) acetone/dimethyl sulfoxide (DMSO) to stock solutions. […] Compound requirements are based upon a 12 milliliter (mL) application volume at a rate of 187 liters per hectare (L/ha). Stock solutions of the safeners were prepared following the same procedure. Spray solutions of the safeners and experimental compound mixtures were prepared by adding the stock solutions to the appropriate amount of dilution solution to form a 12 mL spray solution in two-way combinations. Formulated compounds were applied to the plant material with an overhead Mandel track sprayer equipped with 8002E nozzles calibrated to deliver 187 L/ha over an application area of 0.503 square meters (m^2) at a spray height of 18 inches (43 centimeters (cm)) above average plant canopy. Control plants were sprayed in the same manner with the solvent blank.
(§3) The treated plants and control plants were placed in a greenhouse as described above and watered by sub-irrigation to prevent wash-off of the test compounds. After 20-22 d, the condition of the test plants as compared with that of the control plants was determined visually and scored on a scale of 0 to 100 percent where 0 corresponds to no injury and 100 corresponds to complete kill. Colby's equation was used to determine the herbicidal effects expected from the mixtures.

[2] = test system: lambsquarters (CHEAL); test: Small plot field trial, weed growth reduction; format: in vivo, Chenopodium album; settings: 20 g ae/ha herbicide (triisopropanol amine salt), no safener, post-emergence, mean
[3] = test system: Russian thistle (SASKR); test: Greenhouse postemergence trial, weed efficacy; format: in vivo, Salsola iberica; settings: cloquintocet-mexyl 0 g ai/ha, 20-22 d
Method: as §1, §2, §3

[4] = test system: lambsquarters (CHEAL); test: Greenhouse postemergence trial, weed efficacy; format: in vivo, Chenopodium album; settings: herbicide 20 g ae/ha, cloquintocet-mexyl 0 g ai/ha, 20-22 d
Method: as §1, §2, §3

[5] = test system: wild pansy (VIOTR); test: Greenhouse postemergence trial, weed efficacy; format: in vivo, Viola tricolor; settings: cloquintocet-mexyl 0 g ai/ha, 20-22 d
Method: as §1, §2, §3

[6] = test system: kochia (KCHSC); test: Greenhouse postemergence trial, weed efficacy; format: in vivo, Kochia scoparia; settings: cloquintocet-mexyl 0 g ai/ha, 20-22 d
Method: as §1, §2, §3

[7] = test system: spring barley (HORVS); test: Greenhouse postemergence safening trial, crop phytotoxicity; format: in vivo, Hordeum vulgare; settings: cloquintocet-mexyl 0 g ai/ha, 20-22 d
Method: as §1, §2, §3

[8] = test system: winter wheat (TRZAW); test: as above; format: in vivo, Triticum aestivum; settings: herbicide 20 g ae/ha, cloquintocet-mexyl 0 g ai/ha, 20-22 d
Method: as §1, §2, §3

[9] = test system: spring wheat (TRZAS); test: as above; format: in vivo, Triticum aestivum; settings: cloquintocet-mexyl 0 g ai/ha, 20-22 d
Method: as §1, §2, §3

[10] = test system: wild mustard (SINAR); test: Greenhouse postemergence trial, weed efficacy; format: in vivo, Sinapis arvensis; settings: herbicide 20 g ae/ha, cloquintocet-mexyl 0 g ai/ha, 20-22 d
Method: as §1, §2, §3

[11] = test system: shepherd's purse (CAPBP); test: Greenhouse postemergence trial, weed efficacy; format: in vivo, Capsella bura-pastoris; settings: herbicide 20 g ae/ha, cloquintocet-mexyl 0 g ai/ha, 20-22 d
Method: as §1, §2, §3

[12] = test system: Canada thistle (CIRAR); test: Small plot field trial, weed growth reduction; format: in vivo, Cirsuim arvensis; settings: 20 g ae/ha herbicide (triisopropanol amine salt), no safener, post-emergence, mean
[13] = test system: durum wheat (TRZDU); test: Small plot field trial, crop safety; format: in vivo, Triticum durum; settings: 20 g ae/ha herbicide (triisopropanol amine salt), no safener, post-emergence, mean
Method: (§4) The triisopropanol amine salts of herbicides of formulas I-G-A, I-G-B and I-G-C were tested with and without cloquintocet-mexyl in small plot field trials across various ecozones to evaluate the crop safety of these compounds on […] cereals including winter wheat and durum wheat.
(§5) All herbicide treatments were applied post-emergence in the spring to early summer. Herbicides were applied with bicycle or tractor-mounted sprayers using carbon dioxide (CO2) as a propellant. The sprayers delivered a uniform spray pattern that provided thorough coverage of the foliage using a 150 or 200 L/ha spray volume. At the time of herbicide applications, winter wheat was at the two leaf growth stage and durum wheat was at the 2-3 leaf growth stage.
(§6) Phytotoxicity to cereal crops was visually assessed as percent overall injury, compared to an untreated control plot. The overall injury assessments were based on visual ratings of growth inhibition, chlorosis, and delay in maturity. At late ratings (54-57 days after application), percent visual seed head deformity and reduction in seed formation were also assessed. Trials were designed as randomized complete blocks with four replicates. In general, three to four replicates were assessed for each treatment.

[14] = test system: winter wheat (TRZAW); test: Small plot field trial, crop safety; format: in vivo, Triticum aestivum; settings: 20 g ae/ha herbicide (triisopropanol amine salt), no safener, post-emergence, mean
Method: as §4, §5, §6

[15] = test system: wild buckwheat (POLCO); test: Greenhouse postemergence trial, weed efficacy; format: in vivo, Polygonum convulvus; settings: cloquintocet-mexyl 0 g ai/ha, 20-22 d
Method: as §1, §2, §3

`CCc1nc(C(=O)O)c(Cl)c(N)c1F` [formula I-G-A] was tested, and the “% visual injury VERPE Ob” value ([1]; herbicide 4.375 g ae/ha) was 0%, the “% visual injury VERPE Ob” value ([1]; herbicide 8.75 g ae/ha) was 7% and the “% visual injury VERPE Ob” value ([1]; herbicide 17.5 g ae/ha) was 23%. The “% visual injury VERPE Ob” value ([1]; herbicide 35 g ae/ha) was 50%, the “% visual injury VERPE Ob” value ([1]; herbicide 70 g ae/ha) was 77% and the “Growth reduction of CHEAL, % of untreated” value [2] was 100 % of untreated. For the same molecule, the “% visual injury SASKR Ob” value ([3]; herbicide 4.375 g ae/ha) was 67%, the “% visual injury SASKR Ob” value ([3]; herbicide 8.75 g ae/ha) was 72% and the “% visual injury SASKR Ob” value ([3]; herbicide 17.5 g ae/ha) was 75%. For the same molecule, the “% visual injury SASKR Ob” value ([3]; herbicide 35 g ae/ha) was 82%, the “% visual injury SASKR Ob” value ([3]; herbicide 70 g ae/ha) was 82% and the “% visual injury CHEAL Ob” value [4] was 85%. The “% visual injury VIOTR Ob” value ([5]; herbicide 4.375 g ae/ha) was 3%, the “% visual injury VIOTR Ob” value ([5]; herbicide 8.75 g ae/ha) was 20% and the “% visual injury VIOTR Ob” value ([5]; herbicide 17.5 g ae/ha) was 37%. The “% visual injury VIOTR Ob” value ([5]; herbicide 35 g ae/ha) was 65%, the “% visual injury VIOTR Ob” value ([5]; herbicide 70 g ae/ha) was 82% and the “% visual injury KCHSC Ob” value ([6]; herbicide 4.375 g ae/ha) was 13%. For the same molecule, the “% visual injury KCHSC Ob” value ([6]; herbicide 8.75 g ae/ha) was 23%, the “% visual injury KCHSC Ob” value ([6]; herbicide 17.5 g ae/ha) was 32% and the “% visual injury KCHSC Ob” value ([6]; herbicide 35 g ae/ha) was 67%. The “% visual injury KCHSC Ob” value ([6]; herbicide 70 g ae/ha) was 67%, the “% visual injury HORVS Ob” value ([7]; herbicide 4.375 g ae/ha) was 0% and the “% visual injury HORVS Ob” value ([7]; herbicide 8.75 g ae/ha) was 3%. For the same molecule, the “% visual injury HORVS Ob” value ([7]; herbicide 17.5 g ae/ha) was 10%, the “% visual injury HORVS Ob” value ([7]; herbicide 20 g ae/ha) was 13% and the “% visual injury HORVS Ob” value ([7]; herbicide 35 g ae/ha) was 37%. For the same molecule, the “% visual injury HORVS Ob” value ([7]; herbicide 70 g ae/ha) was 47%, the “% visual injury TRZAW Ob” value [8] was 25% and the “% visual injury TRZAS Ob” value ([9]; herbicide 4.375 g ae/ha) was 0%. For the same molecule, the “% visual injury TRZAS Ob” value ([9]; herbicide 8.75 g ae/ha) was 7%, the “% visual injury TRZAS Ob” value ([9]; herbicide 17.5 g ae/ha) was 33% and the “% visual injury TRZAS Ob” value ([9]; herbicide 35 g ae/ha) was 60%. The “% visual injury TRZAS Ob” value ([9]; herbicide 70 g ae/ha) was 70%, the “% visual injury SINAR Ob” value [10] was 97% and the “% visual injury CAPBP Ob” value [11] was 100%. The “Growth reduction of CIRAR, % of untreated” value [12] was 95.5 % of untreated, the “TRZDU Visual head deformation, % of untreated” value [13] was 4.3 % of untreated and the “TRZDU Visual injury, % of untreated” value [13] was 5.7 % of untreated. The “Instances of TRZAW grain reduction, % of untreated” value [14] was 39.9 % of untreated, the “TRZAW grain formation reduction, % of untreated” value [14] was 27.9 % of untreated and the “% visual injury POLCO Ob” value ([15]; herbicide 4.375 g ae/ha) was 0%. For the same molecule, the “% visual injury POLCO Ob” value ([15]; herbicide 8.75 g ae/ha) was 49%, the “% visual injury POLCO Ob” value ([15]; herbicide 17.5 g ae/ha) was 40% and the “% visual injury POLCO Ob” value ([15]; herbicide 35 g ae/ha) was 75%. For the same molecule, the “% visual injury POLCO Ob” value ([15]; herbicide 70 g ae/ha) was 96%.
